In ChEMBL document CHEMBL4190189, “Exploring Jolkinol D Derivatives To Overcome Multidrug Resistance in Cancer” (J Nat Prod, 2017):

Tests used:
[1] = target: T1, ATP-dependent translocase ABCB1 (Homo sapiens, UniProt P08183); test: Modulation of human ABCB1 expressed in mouse L5178Y cells assessed as fluorescence activity ratio at 2 uM pretreated for 10 mins followed by rhodamine-123 addition measured after 20 mins by flow cytometry (reference value: 0.87); type: cell-based
L5178Y [2] = test: Cytotoxicity against mouse L5178Y cells transfected with human ABCB1 assessed as reduction in cell viability after 72 hrs by MTT assay; type: functional, cell-based
[3] = Cytotoxicity against human EPG85-257RNOV cells assessed as reduction in cell viability after 5 days by SRB assay; type: functional, cell-based; conditions: 120 h
L5178Y [4] = test: Cytotoxicity against mouse L5178Y cells assessed as reduction in cell viability after 72 hrs by MTT assay; type: cell-based
[5] = target: T1, ATP-dependent translocase ABCB1; test: Modulation of human ABCB1 expressed in mouse L5178Y cells assessed as fluorescence activity ratio at 20 uM pretreated for 10 mins followed by rhodamine-123 addition measured after 20 mins by flow cytometry (reference value: 0.87); type: cell-based
[6] = target: T1, ATP-dependent translocase ABCB1; test: Inhibition of human ABCB1 expressed in mouse L5178Y cells assessed as potentiation of doxorubicin-induced cytotoxicity by measuring combination index at 10:1 compound to doxorubicin ratio after 48 hrs by MTT assay; type: cell-based
[7] = target: T1, ATP-dependent translocase ABCB1; test: Inhibition of human ABCB1 ATPase activity expressed in Sf9 insect cell membranes assessed as reduction in verapamil-stimulated vanadate-sensitive ATPase activity at 50 to 100 uM measured after 10 mins by colorimetric method
[8] = target: ABCB1 (P-glycoprotein) ATPase (Homo sapiens, UniProt P08183); test: Inhibition of human ABCB1 ATPase activity expressed in Sf9 insect cell membranes assessed as reduction in verapamil-stimulated vanadate-sensitive ATPase activity at 1.56 to 25 uM measured after 10 mins by colorimetric method relative to control; conditions: Sf9 insect cell membranes expressing human ABCB1, probe verapamil (ATPase stimulator)
[9] = Resistance ratio of IC50 for human EPG85-257P cells to IC50 for human EPG85-257RDB cells; type: functional
[10] = Resistance ratio of IC50 for human EPG85-257P cells to IC50 for human EPG85-257RNOV cells; type: functional
[11] = Induction of apoptosis in human EPG85-257RDB cells assessed as caspase-3 activation at 30 uM after 72 hrs by flow cytometric method relative to control; type: functional
[12] = Induction of apoptosis in human EPG85-257RDB cells at 30 uM after 72 hrs by annexin-V/propidium iodide staining based flow cytometric method relative to control; type: functional
[13] = Induction of apoptosis in human EPG85-257P cells at 30 uM after 72 hrs by annexin-V/propidium iodide staining based flow cytometric method relative to control; type: cell-based
[14] = Induction of apoptosis in human EPP85-181RNOV cells assessed as caspase-3 activation at 30 uM after 72 hrs by flow cytometric method relative to control; type: functional
[15] = Induction of apoptosis in human EPP85-181RDB cells at 30 uM after 72 hrs by annexin-V/propidium iodide staining based flow cytometric method relative to control; type: functional
[16] = Induction of apoptosis in human EPP85-181RNOV cells at 30 uM after 72 hrs by annexin-V/propidium iodide staining based flow cytometric method relative to control; type: functional
[17] = Induction of apoptosis in human EPG85-257RNOV cells at 30 uM after 72 hrs by annexin-V/propidium iodide staining based flow cytometric method relative to control; type: functional
[18] = Induction of apoptosis in human EPG85-257P cells assessed as caspase-3 activation at 30 uM after 72 hrs by flow cytometric method relative to control; type: cell-based; conditions: EPG85-257P cells, read-out: FC
[19] = Induction of apoptosis in human EPG85-257RNOV cells assessed as caspase-3 activation at 30 uM after 72 hrs by flow cytometric method relative to control; type: functional
[20] = target: T1, ATP-dependent translocase ABCB1; test: Inhibition of human ABCB1 expressed in mouse L5178Y cells assessed as potentiation of doxorubicin-induced cytotoxicity by measuring combination index at 50:1 compound to doxorubicin ratio after 48 hrs by MTT assay; type: cell-based
[21] = target: T1, ATP-dependent translocase ABCB1; test: Inhibition of human ABCB1 expressed in mouse L5178Y cells assessed as potentiation of doxorubicin-induced cytotoxicity by measuring combination index at 100:1 compound to doxorubicin ratio after 48 hrs by MTT assay; type: cell-based
[22] = Resistance ratio of IC50 for human EPP85-181P cells to IC50 for human EPP85-181RDB cells; type: functional
[23] = target: T1, ATP-dependent translocase ABCB1; test: Inhibition of human ABCB1 expressed in mouse L5178Y cells assessed as potentiation of doxorubicin-induced cytotoxicity by measuring combination index at 200:1 compound to doxorubicin ratio after 48 hrs by MTT assay; type: cell-based
[24] = target: T1, ATP-dependent translocase ABCB1; test: Inhibition of human ABCB1 expressed in mouse L5178Y cells assessed as potentiation of doxorubicin-induced cytotoxicity by measuring combination index at 15:1 compound to doxorubicin ratio after 48 hrs by MTT assay; type: cell-based
[25] = Cytotoxicity against human EPP85-181RNOV cells assessed as reduction in cell viability after 5 days by SRB assay; type: functional, cell-based; conditions: 120 h
[26] = Cytotoxicity against human EPP85-181RDB cells assessed as reduction in cell viability after 5 days by SRB assay; type: functional, cell-based; conditions: 120 h
[27] = Cytotoxicity against human EPP85-181P cells assessed as reduction in cell viability after 5 days by SRB assay; type: cell-based; conditions: 120 h

T1 sequence (P08183 whole entry): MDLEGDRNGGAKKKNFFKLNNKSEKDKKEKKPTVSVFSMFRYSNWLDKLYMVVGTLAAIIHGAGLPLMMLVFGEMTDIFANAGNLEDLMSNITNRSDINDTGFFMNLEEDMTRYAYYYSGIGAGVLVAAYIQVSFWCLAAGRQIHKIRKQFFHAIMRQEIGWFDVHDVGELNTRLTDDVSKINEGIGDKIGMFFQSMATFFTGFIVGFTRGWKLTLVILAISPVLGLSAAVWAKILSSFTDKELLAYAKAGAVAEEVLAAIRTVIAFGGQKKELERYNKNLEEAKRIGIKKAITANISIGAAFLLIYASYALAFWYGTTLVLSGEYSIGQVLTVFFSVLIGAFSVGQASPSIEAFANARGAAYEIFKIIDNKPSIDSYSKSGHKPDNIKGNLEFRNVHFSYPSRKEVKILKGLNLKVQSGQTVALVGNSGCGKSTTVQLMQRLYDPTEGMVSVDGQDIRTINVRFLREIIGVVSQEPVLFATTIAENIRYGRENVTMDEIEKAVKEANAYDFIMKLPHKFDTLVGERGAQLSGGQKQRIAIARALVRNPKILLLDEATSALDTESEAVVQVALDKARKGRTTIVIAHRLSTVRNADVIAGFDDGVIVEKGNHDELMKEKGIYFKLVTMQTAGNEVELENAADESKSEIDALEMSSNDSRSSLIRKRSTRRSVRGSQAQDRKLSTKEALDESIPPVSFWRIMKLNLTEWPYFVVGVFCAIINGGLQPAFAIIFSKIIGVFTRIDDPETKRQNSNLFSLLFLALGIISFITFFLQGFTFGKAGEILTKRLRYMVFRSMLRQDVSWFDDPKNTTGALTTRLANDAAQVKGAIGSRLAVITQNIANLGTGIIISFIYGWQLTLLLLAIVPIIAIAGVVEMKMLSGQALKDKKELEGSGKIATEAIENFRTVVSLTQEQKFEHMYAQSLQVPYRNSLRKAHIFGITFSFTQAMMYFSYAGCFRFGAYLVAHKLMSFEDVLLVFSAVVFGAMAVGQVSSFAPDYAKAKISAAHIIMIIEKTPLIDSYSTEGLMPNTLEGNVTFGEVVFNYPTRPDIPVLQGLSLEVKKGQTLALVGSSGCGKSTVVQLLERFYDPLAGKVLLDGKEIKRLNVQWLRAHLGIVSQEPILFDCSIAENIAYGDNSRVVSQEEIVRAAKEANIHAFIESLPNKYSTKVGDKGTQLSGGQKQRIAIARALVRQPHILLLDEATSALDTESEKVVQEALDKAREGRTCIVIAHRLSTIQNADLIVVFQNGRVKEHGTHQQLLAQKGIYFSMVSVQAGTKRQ
Sequence of ABCB1 (P-glycoprotein) ATPase (P08183 whole entry): as above

Ratio [1] | Ratio [5] | SMILES | IC50 (L5178Y [2]) | IC50 [3] | IC50 (L5178Y [4]) | Ratio IC50 [9] | Ratio IC50 [10] | also measured
33.3 | 39.6 | COc1ccccc1C(=O)O[C@H]1[C@@H](C)C[C@]2(OC(C)=O)C(=O)/C(C)=C/[C@@H]3[C@H](CC/C(C)=C\[C@@H]12)C3(C)C | > 19 µM | – | > 19 µM | 0.2 | – | CI [6]: 0.09; inhibition (INH) [7]: Active; inhibition at 10 min [8]: 100%
9.4 | 25.4 | CC(=O)O[C@]12C[C@H](C)[C@H](OC(=O)c3ccc(C(F)(F)F)cc3)[C@@H]1/C=C(/C)CC[C@H]1[C@@H](/C=C(\C)C2=O)C1(C)C | > 80 µM | < 10 µM | > 19 µM | 0.4 | 0.2 | –
8.3 | 16.7 | C/C1=C/[C@H]2[C@@H](OC(=O)c3ccc4ccccc4c3)[C@@H](C)C[C@]2(O)C(=O)/C(C)=C/[C@@H]2[C@H](CC1)C2(C)C | > 19 µM | < 10 µM | > 19 µM | 0.3 | 0.4 | Ratio IC50 [22]: 0.3; CI [23]: 0.2

Second part, the compound before the results:

SMILES | Ratio [1] | Ratio [5] | IC50 (L5178Y [2]) | IC50 [3] | IC50 (L5178Y [4]) | Ratio IC50 [9] | Ratio IC50 [10] | also measured
CC(=O)O[C@]12C[C@H](C)[C@H](OC(=O)c3cccc(C)c3)[C@@H]1/C=C(/C)CC[C@H]1[C@@H](/C=C(\C)C2=O)C1(C)C | 2.2 | 18 | > 80 µM | < 10 µM | > 19 µM | – | – | –
CC(=O)O[C@]12C[C@H](C)[C@H](OC(=O)c3cccc(C(F)(F)F)c3)[C@@H]1/C=C(/C)CC[C@H]1[C@@H](/C=C(\C)C2=O)C1(C)C | – | – | – | – | – | – | – | fold change (FC) [11]: 6 - 9; fold change (FC) [12]: 6; fold change (FC) [13]: 4; fold change (FC) [14]: 12; fold change (FC) [15]: 3.5; fold change (FC) [16]: 4.5; fold change (FC) [17]: 4; fold induction at 72 h, 30 µM [18]: 6 to 9; fold change (FC) [19]: 6 - 9
COc1cccc(C(=O)O[C@H]2[C@@H](C)C[C@]3(O)C(=O)/C(C)=C/[C@@H]4[C@H](CC/C(C)=C\[C@@H]23)C4(C)C)c1 | 12 | 32.8 | > 19 µM | – | > 19 µM | – | – | CI [20]: 0.38
CC(=O)O[C@]12C[C@H](C)[C@H](OC(=O)c3ccc(-c4ccccc4)cc3)[C@@H]1/C=C(/C)CC[C@H]1[C@@H](/C=C(\C)C2=O)C1(C)C | 11.6 | 37.2 | > 19 µM | – | > 19 µM | – | 0.2 | CI [21]: 0.32
CC(=O)O[C@]12C[C@H](C)[C@H](OC(=O)C34CC5CC(CC(C5)C3)C4)[C@@H]1/C=C(/C)CC[C@H]1[C@@H](/C=C(\C)C2=O)C1(C)C | 12.6 | 29 | > 19 µM | < 10 µM | > 19 µM | – | – | CI [24]: 1.11; IC50 [25]: 6.63 µM; fold change (FC) [15]: 17; fold change (FC) [16]: 5; IC50 [26]: 5.86 µM; IC50 [27]: 8.61 µM
